Experiment [1] deals with T1, CB2 receptors (Homo sapiens, UniProt P34972). Nature of the experiment: receptor affinity. Type of experiment: binding. The conditions noted are these: estimated; times the affinity of CBD. As to the method: Because CB2 receptors have a low affinity for CBD, a relatively large amount of CBD should be used for efficacy. In a specific implementation, a thin film strip has 100 mg CBD. In alternatives, the oral thin film is as little as 20 mg CBD. Because CBD is a relatively expensive component, the ratio of CBD to other components is more prone to cost/efficacy trade-offs than other components of the formulation. Advantageously, a low does of CBD, of 50 mg or less, acts as a stimulant, making a 20 mg to 50 mg formulation appropriate for formulations that have a goal of reducing the amount of CBD necessary and meeting one of the goals of a concentration improver/mood enhancer, which is stimulation.
T1 sequence (P34972 whole entry): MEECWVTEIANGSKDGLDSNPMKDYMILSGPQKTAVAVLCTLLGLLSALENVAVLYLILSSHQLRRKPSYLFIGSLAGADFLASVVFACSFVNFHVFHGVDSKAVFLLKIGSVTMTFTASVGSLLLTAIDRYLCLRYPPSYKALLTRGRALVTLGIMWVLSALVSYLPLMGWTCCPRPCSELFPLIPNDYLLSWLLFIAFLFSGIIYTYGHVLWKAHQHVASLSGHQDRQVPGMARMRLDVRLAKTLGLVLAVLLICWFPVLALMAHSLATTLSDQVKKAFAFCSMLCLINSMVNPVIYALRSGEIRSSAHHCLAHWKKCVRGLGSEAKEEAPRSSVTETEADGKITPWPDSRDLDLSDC
A greater proportion of CBD may be desirable for the purpose of binding to theorized CBD3 receptors or other presently poorly defined receptors with less affinity for CBD. A high dose of CBD, over 100 mg up to less than 250 mg can have a sedative effect that may be effective for certain individuals, though it is unlikely desirable to reach 250 mg. If CBD is replaced with by endocannabinoid with (an estimated) 1,000 times the affinity of CBD, such as 2-Lineoleoyl-glycerol (3443-82-1) or 2-Palmitolyl-glycerol (23470-00-0), an alternative implementation of the oral thin film could have 0.025 mg to 0.1 mg endocannabinoid, but the formulation would likely be much more expensive than CBD.

The conditions of experiment [2]: applied topically; cited from earlier work.
Experiment [3] deals with T1, CB2 receptors. The conditions noted are these: cited from earlier work.

For the compound 2-Lineoleoyl-glycerol, on CB2 receptors [1], the “affinity relative to CBD” value is reported as ~1,000 times. Still for that read-out and setting: under 2-Palmitolyl-glycerol stands ~1,000 times. `C=C(C)[C@@H]1CCC(C)=C[C@H]1c1c(O)cc(CCCCC)cc1O` [CBD, cannabidiol]: in experiment [2], the “time to have a significant pain relief impact” value is on record as “about 30 minutes”. Further, the “affinity of CB2 receptors for the substance” value at CB2 receptors [3] is recorded as “low affinity”.
